Columns and labels:
[1] = test system: Mus musculus; assay: Antiinflammatory activity in xylene-induced Kunming mouse ear edema model assessed as suppression of ear swelling at 300 mg/kg, po; type: functional
[2] = test system: Mus musculus; assay: Antiinflammatory activity in xylene-induced Kunming mouse ear edema model assessed as suppression of ear swelling at 100 mg/kg, po; type: functional
[3] = test system: Mus musculus; assay: Cardiotoxicity in Kunming mouse assessed as pathological changes at 100 mg/kg, po after 12 days; type: toxicity, organism-based; parameters: dose 100 mg/kg, route oral; settings: in vivo, 288 h
[4] = test system: Mus musculus; assay: Antiinflammatory activity in xylene-induced Kunming mouse ear edema model assessed as suppression of ear swelling at 75 mg/kg, po; type: functional
[5] = test system: Mus musculus; assay: Cardiotoxicity in Kunming mouse assessed as pathological changes at 150 mg/kg, po after 12 days; type: toxicity, organism-based; parameters: dose 150 mg/kg, route oral; settings: in vivo, 288 h
[6] = test system: Mus musculus; assay: Antiinflammatory activity in xylene-induced Kunming mouse ear edema model assessed as suppression of ear swelling at 150 mg/kg, po; type: functional

| Structure (SMILES) | Activity [1] | Activity [4] | also measured |
| --- | --- | --- | --- |
| CCOC(=O)/C(=C/c1ccc(O)c(OC)c1)c1ccc(S(C)(=O)=O)cc1 | 34.62% | – | – |
| COc1ccc(/C=C(/C(=O)O)c2ccc(S(C)(=O)=O)cc2)cc1OC | 15.92% | – | – |
| CS(=O)(=O)c1ccc(/C(=C\c2ccccc2)C(=O)O)cc1 | 17.49% | – | – |
| COc1cc(/C=C(/C(=O)O)c2ccccc2)ccc1OC(C)=O | 21.86% | – | – |
| CCOC(=O)/C(=C/c1ccc(OC(C)=O)c(OC)c1)c1ccc(S(C)(=O)=O)cc1 | 24.11% | – | – |
| COc1ccc2c(c1)c(CC(=O)O)c(C)n2C(=O)c1ccc(Cl)cc1 [INDOMETHACIN] | – | – | Activity [2]: 37.03%; Activity [3]: Non-toxic |
| COc1cc(/C=C(/C(=O)O)c2ccc(S(C)(=O)=O)cc2)ccc1O | 9.97% | – | – |
| COc1cc(/C=C(/C(=O)O)c2ccc(S(C)(=O)=O)cc2)ccc1OC(C)=O | 45.29% | 12.38% | Activity [5]: Non-toxic; Activity [6]: 26.12% |
| CCOC(=O)/C(=C/c1ccc(OC(C)=O)c(Br)c1)c1ccc(S(C)(=O)=O)cc1 | – | 0% | – |
| CC(=O)Oc1ccc(/C=C(/C(=O)O)c2ccc(S(C)(=O)=O)cc2)cc1 | 44.75% | 23.34% | Activity [6]: 32.87% |
